Data taken from US9505762B2, “Purine derivatives as CB2 receptor agonists” (Hoffmann-La Roche Inc., priority 2013, dated 2016).

Assays:
[1] = biological target: human CB1 receptors (Homo sapiens (Human), UniProt P21554); experiment: functional cAMP assay, CB1; assay type: cell-based; settings: CHO cells expressing human CB1
[2] = biological target: human CB2 receptors (Homo sapiens (Human), UniProt P34972); experiment: functional cAMP assay, CB2; assay type: cell-based; settings: CHO cells expressing human CB2
human CB2 receptors, sequence (P34972 whole entry): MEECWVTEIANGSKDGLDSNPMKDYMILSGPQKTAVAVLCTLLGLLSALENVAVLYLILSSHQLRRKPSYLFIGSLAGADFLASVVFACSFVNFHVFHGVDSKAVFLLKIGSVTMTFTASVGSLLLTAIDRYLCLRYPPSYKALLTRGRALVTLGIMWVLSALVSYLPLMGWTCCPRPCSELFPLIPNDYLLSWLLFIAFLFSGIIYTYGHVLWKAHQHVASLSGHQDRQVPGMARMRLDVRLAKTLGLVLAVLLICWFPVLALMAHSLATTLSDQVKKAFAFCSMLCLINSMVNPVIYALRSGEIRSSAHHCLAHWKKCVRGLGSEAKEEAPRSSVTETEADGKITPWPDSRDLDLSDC

human CB1 receptors, sequence (P21554 whole entry): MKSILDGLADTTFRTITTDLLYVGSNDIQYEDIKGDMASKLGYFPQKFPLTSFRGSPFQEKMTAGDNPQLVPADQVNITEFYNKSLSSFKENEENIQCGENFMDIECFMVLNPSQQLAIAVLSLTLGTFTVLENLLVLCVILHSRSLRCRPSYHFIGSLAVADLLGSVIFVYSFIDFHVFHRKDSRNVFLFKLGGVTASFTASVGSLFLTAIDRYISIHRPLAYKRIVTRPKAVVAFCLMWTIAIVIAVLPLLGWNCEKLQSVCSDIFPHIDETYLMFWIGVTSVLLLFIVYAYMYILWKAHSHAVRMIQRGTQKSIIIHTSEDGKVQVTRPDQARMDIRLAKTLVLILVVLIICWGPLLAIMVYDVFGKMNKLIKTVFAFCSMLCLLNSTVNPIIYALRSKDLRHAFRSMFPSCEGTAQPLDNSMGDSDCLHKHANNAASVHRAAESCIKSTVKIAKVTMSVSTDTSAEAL

Compound	EC50 [1] [µM]	EC50 [2] [µM]
CC(C)(C)COc1nc(N2CCC(F)(F)C2)c2ncn(Cc3ccccc3Cl)c2n1 [Example 124, 9-[(2-chlorophenyl)methyl]-6-(3,3-difluoropyrrolidin-1-yl)-2-(2,2-dimethylpropoxy) purine]	> 10	0.0027
CC(C)(C)COc1nc(N2CCC(F)(F)C2)c2ncn(Cc3ccccc3C(F)(F)F)c2n1 [Example 125, 6-(3,3-difluoropyrrolidin-1-yl)-2-(2,2-dimethylpropoxy)-9-[[2-(trifluoromethyl)phenyl]methyl]purine]	> 10	0.0026
CC(C)(C)COc1nc(N2CCC(F)(F)C2)c2ncn(Cc3ccccc3S(C)(=O)=O)c2n1 [Example 126, 6-(3,3-difluoropyrrolidin-1-yl)-2-(2,2-dimethylpropoxy)-9-[(2-methylsulfonylphenyl)methyl]purine]	> 10	0.0245
Cc1nnc(Cn2cnc3c(N4CCC(F)(F)C4)nc(OCC(C)(C)C)nc32)o1 [Example 127, 2-[[6-(3,3-difluoropyrrolidin-1-yl)-2-(2,2-dimethylpropoxy)purin-9-yl]methyl]-5-methyl-1,3,4-oxadiazole]	> 10	0.332
Cc1noc(Cn2cnc3c(N4CCC(F)(F)C4)nc(OCC(C)(C)C)nc32)n1 [Example 128, 5-[[6-(3,3-difluoropyrrolidin-1-yl)-2-(2,2-dimethylpropoxy)purin-9-yl]methyl]-3-methyl-1,2,4-oxadiazole]	> 10	0.109
Cn1nnnc1Cn1cnc2c(N3CCC(F)(F)C3)nc(OCC(C)(C)C)nc21 [Example 129, 6-(3,3-difluoropyrrolidin-1-yl)-2-(2,2-dimethylpropoxy)-9-[(1-methyltetrazol-5-yl)methyl]purine]	> 10	0.0956
CC(C)(C)Nc1nc(N2CC[C@H](O)C2)c2ncn(CCC(F)(F)F)c2n1 [Example 130, (3S)-1-[2-(tert-butylamino)-9-(3,3,3-trifluoropropyl)purin-6-yl]pyrrolidin-3-ol]	> 10	0.215
CC(C)(C)COc1nc(N2CCC(C)(O)C2)c2ncn(Cc3ccccc3Cl)c2n1 (centres unmarked) [Example 131, 1-[9-[(2-chlorophenyl)methyl]-2-(2,2-dimethylpropoxy)purin-6-yl]-3-methyl pyrrolidin-3-ol]	> 10	0.0667
CC(C)(C)COc1nc(N2CCC(C)(O)C2)c2ncn(Cc3ccccc3C(F)(F)F)c2n1 (centres unmarked) [Example 132, 1-[2-(2,2-dimethylpropoxy)-9-[[2-(trifluoromethyl)phenyl]methyl]purin-6-yl]-3-methylpyrrolidin-3-ol]	> 10	0.0221
CC(C)(C)COc1nc(N2CCC(C)(O)C2)c2ncn(Cc3ccccc3S(C)(=O)=O)c2n1 (centres unmarked) [Example 133, 1-[2-(2,2-dimethylpropoxy)-9-[(2-methylsulfonylphenyl)methyl]purin-6-yl]-3-methylpyrrolidin-3-ol]	> 10	0.149
CC(C)(C)COc1nc(N2CCC(C)(O)C2)c2ncn(Cc3ncccc3Cl)c2n1 (centres unmarked) [Example 134, 1-[9-[(3-chloropyridin-2-yl)methyl]-2-(2,2-dimethylpropoxy)purin-6-yl]-3-methylpyrrolidin-3-ol]	> 10	0.178
Cc1nonc1Cn1cnc2c(N3CCC(C)(O)C3)nc(OCC(C)(C)C)nc21 (centres unmarked) [Example 135, 1-[2-(2,2-dimethylpropoxy)-9-[(4-methyl-1,2,5-oxadiazol-3-yl)methyl]purin-6-yl]-3-methylpyrrolidin-3-ol]	> 10	0.0307
CC1(O)CCN(c2nc(NC(C)(C)C)nc3c2ncn3Cc2c[nH]nc2C(F)(F)F)C1 (centres unmarked) [Example 136, 1-[2-(tert-butylamino)-9-[[3-(trifluoromethyl)-1H-pyrazol-4-yl]methyl]purin-6-yl]-3-methylpyrrolidin-3-ol]	> 10	0.15
CC(C)(C)Nc1nc(N2CC3(COC3)C2)c2ncn(Cc3ccccc3Cl)c2n1 [Example 138, N-tert-butyl-9-[(2-chlorophenyl)methyl]-6-(2-oxa-6-azaspiro[3.3]heptan-6-yl)purin-2-amine]	> 10	0.0781
CC(C)(C)c1nc(N2CC[C@H](O)C2)c2ncn(Cc3nnnn3C3CC3)c2n1 [Example 139, (3S)-1-[2-tert-butyl-9-[(1-cyclopropyltetrazol-5-yl)methyl]purin-6-yl]pyrrolidin-3-ol]	> 10	0.201
Cc1nonc1Cn1cnc2c(N3CCC(F)(F)C3)nc(OCC(C)(C)C)nc21 [Example 140, 3-[[6-(3,3-difluoropyrrolidin-1-yl)-2-(2,2-dimethylpropoxy)purin-9-yl]methyl]-4-methyl-1,2,5-oxadiazole]	> 10	0.0092
Cc1noc(Cn2cnc3c(N4CC5(COC5)C4)nc(NC(C)(C)C)nc32)n1 [Example 141, N-tert-butyl-9-[(3-methyl-1,2,4-oxadiazol-5-yl)methyl]-6-(2-oxa-6-azaspiro[3.3]heptan-6-yl)purin-2-amine]	> 10	0.0409
CC(C)(C)Nc1nc(N2CC3(COC3)C2)c2ncn(CCC(F)(F)F)c2n1 [Example 142, N-tert-butyl-6-(2-oxa-6-azaspiro[3.3]heptan-6-yl)-9-(3,3,3-trifluoropropyl)purin-2-amine]	> 10	0.681
CC(C)(C)COc1nc(N2CC3(COC3)C2)c2ncn(Cc3ccccc3Cl)c2n1 [Example 143, 6-[9-[(2-chlorophenyl)methyl]-2-(2,2-dimethylpropoxy)purin-6-yl]-2-oxa-6-azaspiro[3.3]heptane]	> 10	0.268
Cc1nonc1Cn1cnc2c(N3CCC[C@@H]3CO)nc(C(C)(C)C)nc21 [Example 145, [(2R)-1-[2-tert-butyl-9-[(4-methyl-1,2,5-oxadiazol-3-yl)methyl]purin-6-yl]pyrrolidin-2-yl]methanol]	> 10	0.0061
CC(C)(C)c1nc(N2CCC[C@@H]2C#N)c2ncn(Cc3nnnn3C3CC3)c2n1 [Example 147, (2R)-1-[2-tert-butyl-9-[(1-cyclopropyltetrazol-5-yl)methyl]purin-6-yl]pyrrolidine-2-carbonitrile]	> 10	0.176
Cc1nonc1Cn1cnc2c(N3CCC[C@@H]3C#N)nc(C(C)(C)C)nc21 [Example 148, (2R)-1-[2-tert-butyl-9-[(4-methyl-1,2,5-oxadiazol-3-yl)methyl]purin-6-yl]pyrrolidine-2-carbonitrile]	> 10	0.0157
Cc1nonc1Cn1cnc2c(N3CC4(COC4)C3)nc(C(C)(C)C)nc21 [Example 149, 6-[2-tert-butyl-9-[(4-methyl-1,2,5-oxadiazol-3-yl)methyl]purin-6-yl]-2-oxa-6-azaspiro[3.3]heptane]	> 10	0.185
Cc1nonc1Cn1cnc2c(N3CCSC3)nc(C(C)(C)C)nc21 [Example 150, 3-[[2-tert-butyl-6-(1,3-thiazolidin-3-yl)purin-9-yl]methyl]-4-methyl-1,2,5-oxadiazole]	> 10	0.0105
CC(C)(C)COc1nc(N2CCC(F)(F)C2)c2nc[nH]c2n1 [Example 151, 6-(3,3-difluoropyrrolidin-1-yl)-2-(2,2-dimethylpropoxy)-9H-purine]	> 10	0.0287
